Laboratory results: patent publication US5298523A, “Method for treating transplant patients using mycalamide compounds” (priority 1992, dated 1994)
Entries after “also recorded” stand apart in the source; their conditions may differ.

Key:
[1] = test system: graft vs. host reaction, CB6F1 mice grafted with BALB/c splenocytes; assay: Graft vs. host reaction (Simonsen splenomegaly assay); assay type: in vivo, mouse; conditions: Experiment #2, 0.2 mg/kg i.p., Days 1-7
Procedure: Graft vs. host reaction. In vivo studies with mycalamide A utilized the […]→F1, GVHR model (Simonsen splenomegaly assay). CB6F1 male mice, 4 weeks of age, were injected intraperitoneally with 5×10^7 splenocytes from BALB/c male mice, 8 weeks of age, on day 0 (BALB/c→CB6F1). A syngeneic control group (CB6F1 →CB6F1) was similarly prepared and served as the negative control. For experiment 1, the grafted mice were divided into 5 treatment groups of 5 mice each. Groups were injected intraperitoneally with mycalamide A (dissolved initially in ethanol followed by dilution in sterile phosphate-buffered saline as a vehicle) or vehicle alone on days 1-7. For experiment 2, the grafted mice were divided into 7 treatment groups of 5 mice each and similarly injected intraperitoneally with mycalamide A, an immunosuppressive standard, didemnin B, or vehicle alone on days 1-7. On day 7 all groups were sacrificed, spleens excised, and the mean spleen weight and stimulation index calculated for each group. The stimulation index was calculated as follows: [formula] A spleen index of 1.3 or greater is considered a positive response.
^a CB6F1 mice (5 per group) were grafted with 5 × 10^7
BALB/c splenocytes, intraperitoneally on Day 0. Groups were injected
intraperitoneally with drug or vehicle on Days 1-7. Positive indicates
grafted mice receiving vehicle alone.
^b Number of surviving mice at the end of the experiment.
^c Stimulation index (SI) = (spleen weight of test group/body weight
of test group)/(spleen weight of syngeneic group/body weight of syngeneic
^d Suppression = [(SI of positive control) (SI of test group)]/[(SI
of positive control) (SI of syngeneic group)].
^e Didemnin B immunosuppressive standard.

murine CD4^+ T cells [2] = assay: Activation of CD4+ T cells by anti-CD3 mAb/mB7; assay type: cell-based, murine (BALB/c); conditions: anti-CD3/mB7
Procedure: (§1) (A) Costimulation of T cells with anti-CD3 mAb and mB7. […] (B) Costimulation of T cells with mB7 and PMA. […] All cultures were incubated for 48 hours and pulsed with 1 μCi [ ^3 H] thymidine/well for the last 6 hours of the incubation period to assay for T cell proliferation.
(§2) (A) Costimulation of T cells with anti-CD3 mAb and mB7. 2×10^5 purified BALB/c CD4^+ T lymphocytes were stimulated with the indicated concentrations of anti-CD3 mAb in the presence of medium (.largecircle.), 2×10^4 paraformaldehyde-fixed CHO-mB7 cells (.quadrature.), or 2×10^4 paraformaldehyde-fixed CHO-mB7 cells in the presence of 0.1 nM FK506 (.gradient.), 1 nM FK506 (Δ), or 10 nM FK506 ( ). (B) Costimulation of T cells with mB7 and PMA. 2×10^5 purified BALB/c CD4^+ T lymphocytes were stimulated with the indicated concentrations of PMA and either medium (.largecircle.), 2×10^4 paraformaldehyde-fixed CHO-mB7 cells (.quadrature.), or paraformaldehyde-fixed CHO-mB7 cells in the presence of 0.1 nM FK506 (.gradient.), 1 nM FK506 (Δ), or 10 nM FK506 ( ). All cultures were incubated for 48 hours and pulsed with 1 μCi [^3 H] thymidine/well for the last 6 hours of the incubation period to assay for T cell proliferation.
as §2, with “pM mycalamide A” for “nM FK506”
mB7-mediated activation of murine CD4^+ T cells. Mouse T cells were purified as follows: splenocytes were depleted of red blood cells by treatment with Tris-NH4 Cl. T cells were enriched by nylon wool fractionation. CD4^+ T cells from BALB/c mice were purified by two-fold treatment with a mixture of anti-MHC Class II and anti-CD8 monoclonal antibodies and rabbit complement. Chinese hamster ovary cells (CHO) and CHO cells transfected with the murine B7 molecule (CHOmB7) were fixed with 1% paraformaldehyde prior to addition to the cultures. Microcultures were set up in duplicate 96-well plates. […] All cultures were incubated for 48 hours and pulsed with 1 μCi ^3 H-thymidine/well for the last 6 hours of the incubation period to assay for T cell proliferation.

[3] = T cell viability by trypan blue exclusion; assay type: cell-based, murine; conditions: t cells; 1 nM, Experiment 1, 20 hours; read-out: percentage of trypan blue-positive cells
Procedure: (§3) Determination of mycalamide A toxicity. The toxicity of mycalamide A on murine splenocytes and human PBL was determined using a colorimetric assay, based on the ability of viable cells to convert the colorless tetrazolium salt, 3-(4,5-dimethylthiazol-2yl)-2,5-diphenyl tetrazolium bromide (MTT) to a colored formazan product and trypan blue exclusion. For the colorimetric assay, a volume of 0.075 ml of an MTT solution (550 μg/ml of MTT in TCM) was added to test and control wells containing one of the populations of splenocytes or test wells and incubated for 5-6 hours following the initial incubation period. Microtiter plates were centrifuged at 100× g, supernatants carefully removed, and a volume of 0.20 ml of isopropyl alcohol was added to each well to dissolve the formazan crystals. The absorbance at 570 nm was determined for each well using an ELISA plate reader. […] As an additional parameter of toxicity, wells containing cultured lymphocytes with various dilutions of mycalamide A were examined with trypan blue, and the percentage of dye-excluding (viable) cells was determined.
(§4) Compounds were added as indicated. Cells were harveste
(§5) Each data point represents the mean value o

T cells = assay: T cell viability by trypan blue exclusion; assay type: cell-based, murine; conditions: 1 nM
Procedure: as §3, §4, §5

murine CD4^+ T cells [4] = assay: Activation of CD4+ T cells by PMA/mB7; assay type: cell-based, murine (BALB/c); conditions: in words
Procedure: as §1, §2
(A) Costimulation of T cells with anti-CD3 mAb and mB7. […]

| SMILES | % Suppression [1] [%] | Number of surviving mice at the end of the experiment [1] | Stim. index [1] | potency compared to CsA (murine CD4^+ T cells [2]; FK506 vs CsA) | effect on anti-CD3/mB7 activation of CD4+ cells (murine CD4^+ T cells [2]; in words) | cytotoxicity at 20 h, 0.001 µM [3] [%] | number of cells excluding trypan blue (T cells; Experiment 1, 20 hours) | number of cells excluding trypan blue (T cells; Experiment 2, 20 hours) | percentage of trypan blue-positive cells (T cells; Experiment 2, 20 hours) [%] | effect on PMA/CHO-mB7 stimulation of CD4+ cells (murine CD4^+ T cells [4]) |
| --- | --- | --- | --- | --- | --- | --- | --- | --- | --- | --- |
| CC[C@H](C)[C@H]1NC(=O)[C@@H](NC(=O)[C@@H](CC(C)C)N(C)C(=O)[C@@H]2CCCN2C(=O)C(C)O)[C@@H](C)OC(=O)[C@H](Cc2ccc(OC)cc2)N(C)C(=O)[C@@H]2CCCN2C(=O)[C@H](CC(C)C)NC(=O)[C@@H](C)C(=O)[C@H](C(C)C)OC(=O)C[C@@H]1O (stereo partly shown) [Didemnin B, didemnin B, reference compound] | 113 | 5/5 | 0.93 |  |  |  |  |  |  |  |
| C=CC[C@@H]1/C=C(\C)C[C@H](C)C[C@H](OC)[C@H]2O[C@@](O)(C(=O)C(=O)N3CCCC[C@H]3C(=O)O[C@H](/C(C)=C/[C@@H]3CC[C@@H](O)[C@H](OC)C3)[C@H](C)[C@@H](O)CC1=O)[C@H](C)C[C@@H]2OC [FK506, reference compound] |  |  |  | approximately 100 times | parallel those of CsA; also recorded: blocks the anti-CD3/mB7 activation of CD4^+ cells | < 2 | 1.40 × 10^6 cells | 1.64 × 10^6 cells | < 2 | not affected |
